{"source": "patent US9562085B2", "about": "“Antimicrobial peptide” (priority 2013, dated 2017)", "key": {"[1]": {"tested_on": "MRSA LUH15051", "assay": "Burn wound infection model, thermally wounded human skin equivalents, mupirocin-resistant MRSA LUH15051", "format": "cell-based, Staphylococcus aureus", "details": "compared with LL-37 and P60.4Ac, FIG. 5", "protocol": "(§1) Human skin equivalents were prepared as described in El Ghalbzouri et al. (Lab. Invest. 2004 January; 84(1):102-12). In brief, 5×10^5 normal human keratinocytes were seeded onto fibroblast-populated rat-tail collagen matrices. The collagen matrices were prepared in advance by making a basal (0.1% acetic acid, 4 mg/ml collagen, Hank's Balanced Salt Solution (HBSS, 10×), 1 M NaOH and FCS) and a top collagen layer in which normal human fibroblasts were seeded (4 mg/ml collagen, 10×HBSS, 1 M NaOH, FCS and fibroblasts). Transwell filters with 3 μm pore size (Corning 3414, Costar) were used to culture the human skin equivalents. The collagen matrices were cultured in fibroblast medium for a week. The full thickness human skin equivalents were first cultured submerged in keratinocyte medium for 2 or 3 days at 37° C. and 7.3% CO2 and were then cultured in keratinocyte medium as described above, but with 1% FCS and supplemented with […] L-serine, 10 mM L-carnitine, 1 μM DL-α-tocopherol-acetate, 50 μM ascorbic acid, a lipid supplement that contained palmitic acid, linoleic acid and arachidonic acid in a 1:1:1 ratio and 2.4×10^−5 M bovine serum albumin. […]"}, "[2]": {"tested_on": "MRSA LUH14616", "assay": "In vitro killing assay on mid-log phase bacteria, MRSA LUH14616", "format": "cell-based, Staphylococcus aureus", "details": "for killing of MRSA LUH14616, in words: comparison among peptides tested, FIGS. 2-3", "excerpt": "(§2) The clinical isolate of methicillin-resistant Staphylococcus aureus (MRSA), LUH14616 was kindly provided by Dr. S. Croes, Maastricht University Medical Center, Maastricht, Netherlands (see S.B.M.C. Croes, Microbiol. 2009; 9:229. doi: 10.1186/1471-2180-9-229) and that of mupirocine-resistant MRSA LUH15051 was a gift from Dr. M.E.O.C. Heck (Laboratory for Infectious Diseases and Screening, National Institute for Public Health and Environment, RIVM, Bilthoven, Netherlands).\n(§3) Bacteria were stored at -80° C. until use. Inoculi of mid-log phase bacteria were prepared by incubating isolated MRSA colonies from blood agar plates in Tryptic Soy Broth (TSB) medium (Becton Dickinson, Le Pont de Clax, France) for 2.5 hours and then diluted to the concentration needed.\n(§4) For the in vitro killing assay on mid-log phase bacteria, MRSA LUH14616 and MRSA LUH15051 were resuspended to a concentration of 1×10^6 bacteria/ml in PBS. Subsequently, 200 μl was added to a concentration range of peptides LL-37, P60.4Ac (OP-145) and P10 that were lyophilized in advance. Subsequently, the bacteria-peptide mixture was incubated for 1 hour at 37° C. To establish the killing capacity of these peptides, the suspensions were serially diluted and plated onto DST agar plates to measure viable CFU counts. IC90, IC99 and IC99.9 values are calculated by linear regression analysis."}, "[3]": {"tested_on": "mycobacteria", "assay": "Activity against mycobacteria", "format": "cell-based"}, "[4]": {"tested_on": "S. aureus JAR", "format": "cell-based", "details": "JAR, 2 h", "protocol": "S. aureus JAR is described in Campoccia et al. (Int. J. Artif. Organs, 2008 September; 31(9):841-7).\nFor the in vitro killing assay with P10 variants, S. aureus JAR ([…] CFU/ml) were incubated for 2 hours at 37° C. with various concentrations of the peptides in PBS or in PBS/human plasma (1/1, v/v). […] The LC99.9 is the average value of two independent experiments."}, "[5]": {"tested_on": "lipoteichoic acid (LTA), peptidoglycan (PG) and lipopolysaccharides (LPS)", "assay": "Endotoxin neutralization", "excerpt": "The term “anti-inflammatory activity” of a polypeptide as used herein refers to inhibiting, reducing or preventing an inflammatory response in a subject that has been infected by microbes, e.g., bacteria, viruses, fungi, and/or parasites. Anti-inflammatory activity of polypeptides of the disclosure is achieved by inhibiting, reducing or preventing the release of pro-inflammatory microbial compounds, such as lipoteichoic acid (LTA), peptidoglycan (PG) and/or lipopolysaccharides (LPS). Anti-inflammatory activity can be measured by methods known in the art. One example of such method is a lipopolysaccharide neutralization assay. In this method, a polypeptide of the disclosure is mixed with 1 mg of lipopolysaccharides and incubated for 60 minutes. Thereafter, these mixtures were added to 4 times diluted fresh human blood and 18 hours thereafter, the level of cytokines (1L-8, 1L-12p40) in the blood sample are measured by ELISA."}, "[6]": {"tested_on": "MRSA LUH14616", "assay": "Burn wound infection model, thermally wounded human skin equivalents, MRSA LUH14616", "format": "cell-based, Staphylococcus aureus", "details": "compared with LL-37 and P60.4Ac, FIG. 4", "protocol": "as §1"}, "[7]": {"tested_on": "(drug-resistant) Pseudomonas aeruginosa strains", "assay": "Activity against Pseudomonas aeruginosa", "format": "cell-based", "details": "various (drug-resistant) strains"}, "[8]": {"tested_on": "methicillin-resistant S. aureus biofilm", "assay": "Prevention of MRSA biofilm formation", "format": "cell-based", "details": "on plastic as well as biotic (wounded 3-D human skin model) surfaces"}, "[9]": {"tested_on": "(fluconazole-resistant) Candida albicans", "assay": "Activity against Candida albicans", "format": "cell-based"}, "[10]": {"tested_on": "Aspergillus niger", "assay": "Activity against Aspergillus niger", "format": "cell-based"}, "[11]": {"tested_on": "(drug-resistant) Acinetobacter baumannii strains", "assay": "Activity against Acinetobacter baumannii", "format": "cell-based"}, "[12]": {"tested_on": "MRSA LUH15051", "assay": "In vitro killing assay on mid-log phase bacteria, mupirocine-resistant MRSA LUH15051", "format": "cell-based, Staphylococcus aureus", "details": "compared with LL-37 and P60.4Ac", "excerpt": "as §2, §3, §4"}, "[13]": {"tested_on": "Staphylococcus epidermidis", "assay": "Activity against Staphylococcus epidermidis", "format": "cell-based"}}, "data": [{"substance": "Ac-LAREYKKIVEKLKRWLRQVLRTLR-NH2 (N-terminus and C-terminus assumed) [Peptide P10]", "values": [{"measurement": "eliminating mupirocine-resistant MRSA from thermally wounded human skin equivalents, in words", "setting": "[1]", "result": "more effective than LL-37 and P60.4Ac"}, {"measurement": "activity compared with P60.4Ac", "setting": "[2]; MRSA LUH14616, surviving bacteria at similar concentration", "result": "approximately 100 times"}, {"measurement": "IC99.9", "setting": "[2]; MRSA LUH14616 in PBS, 1 hour at 37° C., 99.9% Inhibitory Concentration, linear regression", "result": 0.59, "unit": "µM"}, {"measurement": "effectiveness against MRSA bacteria in log phase, stationary bacteria and bacteria residing in biofilms", "setting": "[2]; MRSA, strain not stated", "result": "highly effective"}, {"measurement": "killing of MRSA LUH14616, in words", "setting": "[2]", "result": "highest activity"}, {"measurement": "killing of MRSA LUH14616, in words", "setting": "[2]; listed as Peptide 10", "result": "more effective than LL-37 and P60.4Ac"}, {"measurement": "effectiveness against mycobacteria", "setting": "[3]", "result": "highly effective"}, {"measurement": "LC99.9 (μM) (50% plasma)", "setting": "[4]", "result": 102.4, "unit": "µM"}, {"measurement": "LC99.9 (μM) (PBS)", "setting": "[4]", "result": 1.6, "unit": "µM"}, {"measurement": "neutralization of endotoxin LTA, PG and LPS", "setting": "[5]", "result": "neutralizes"}, {"measurement": "eliminating MRSA from thermally wounded human skin equivalents, in words", "setting": "[6]", "result": "more effective than LL-37 and P60.4Ac"}, {"measurement": "effectiveness against Pseudomonas aeruginosa", "setting": "[7]", "result": "highly effective"}, {"measurement": "prevention of MRSA biofilm formation", "setting": "[8]", "result": "able to prevent"}, {"measurement": "effectiveness against Candida albicans", "setting": "[9]", "result": "highly effective"}, {"measurement": "effectiveness against Aspergillus niger", "setting": "[10]", "result": "highly effective"}, {"measurement": "effectiveness against Acinetobacter baumannii", "setting": "[11]", "result": "highly effective"}, {"measurement": "killing of mupirocine-resistant MRSA, in words", "setting": "[12]", "result": "more effective than LL-37 and P60.4Ac"}, {"measurement": "effectiveness against Staphylococcus epidermidis", "setting": "[13]", "result": "highly effective"}]}]}
